According to US20080311221A1, “LEWIS ACID AND OIL-SOLUBLE HYBRID PESTICIDE CONCENTRATE THAT SPONTANEOUSLY FORMS A WATER-BASED MICROEMULSION” (PBI/Gordon Corporation, priority 2007, published 2008):

Experiment: Standard accelerated chemical stability test, HPLC of each active, 40° C. for thirty days
Assay type: physicochemical
Conditions: HPLC after 40° C. for thirty days, sealed container
Method: Another sample of the concentrate Example 4 was subjected to a standard accelerated chemical stability test by conducting an HPLC analysis of each of the active ingredients to determine the percent concentration of each active in the concentrate. The sample was then placed in a sealed container and stored at 40° C. for thirty days. An HPLC analysis was repeated following the extended storage period. All are within accepted limits as established by U.S. EPA for pesticidal products.

SMILES	Final percent concentration of active in concentrate
Cc1nn(-c2cc(NS(C)(=O)=O)c(Cl)cc2Cl)c(=O)n1C(F)F [Sulfentrazone]	0.363%
O=C(O)c1c(Cl)ccc2cc(Cl)cnc12 [Quinclorac]	1.876%
CSC(=O)c1c(C(F)F)nc(C(F)(F)F)c(C(=O)SC)c1CC(C)C [Dithiopyr]	1.909%
COc1c(Cl)ccc(Cl)c1C(=O)O [Dicamba]	1.091%
O=C(O)COc1ccc(Cl)cc1Cl [2,4-D]	8.987%

Same assay, conditions: HPLC before storage; concentrate of Example 4 (so in the source)

SMILES	Initial percent concentration of active in concentrate
Cc1nn(-c2cc(NS(C)(=O)=O)c(Cl)cc2Cl)c(=O)n1C(F)F [Sulfentrazone]	0.379%
O=C(O)c1c(Cl)ccc2cc(Cl)cnc12 [Quinclorac]	1.91%
CSC(=O)c1c(C(F)F)nc(C(F)(F)F)c(C(=O)SC)c1CC(C)C [Dithiopyr]	1.977%
COc1c(Cl)ccc(Cl)c1C(=O)O [Dicamba]	1.141%
O=C(O)COc1ccc(Cl)cc1Cl [2,4-D]	9.203%

Same assay, conditions: final vs initial, 40° C. for thirty days

SMILES	% Diff
Cc1nn(-c2cc(NS(C)(=O)=O)c(Cl)cc2Cl)c(=O)n1C(F)F [Sulfentrazone]	−4.22%
O=C(O)c1c(Cl)ccc2cc(Cl)cnc12 [Quinclorac]	−1.78%
CSC(=O)c1c(C(F)F)nc(C(F)(F)F)c(C(=O)SC)c1CC(C)C [Dithiopyr]	−3.44%
COc1c(Cl)ccc(Cl)c1C(=O)O [Dicamba]	−4.38%
O=C(O)COc1ccc(Cl)cc1Cl [2,4-D]	−2.35%

Experiment: Ambient storage stability test, HPLC, 25° C. for two and one-half months
Assay type: physicochemical
Conditions: HPLC after 25° C. for two and one-half months
Method: A further sample of the concentrate of Example 4 was tested under ambient storage conditions at 25° C. for two and one-half months. The sample was initially subjected to an HPLC test, and then again tested at the end of the storage period.

SMILES	Final percent concentration of active in concentrate
Cc1nn(-c2cc(NS(C)(=O)=O)c(Cl)cc2Cl)c(=O)n1C(F)F [Sulfentrazone]	0.380%
O=C(O)c1c(Cl)ccc2cc(Cl)cnc12 [Quinclorac]	1.929%
CSC(=O)c1c(C(F)F)nc(C(F)(F)F)c(C(=O)SC)c1CC(C)C [Dithiopyr]	1.921%
COc1c(Cl)ccc(Cl)c1C(=O)O [Dicamba]	0.933%
O=C(O)COc1ccc(Cl)cc1Cl [2,4-D]	9.154%

Same assay, conditions: HPLC before storage; concentrate of Example 4 (so in the source)

SMILES	Initial percent concentration of active in concentrate
Cc1nn(-c2cc(NS(C)(=O)=O)c(Cl)cc2Cl)c(=O)n1C(F)F [Sulfentrazone]	0.379%
O=C(O)c1c(Cl)ccc2cc(Cl)cnc12 [Quinclorac]	1.91%
CSC(=O)c1c(C(F)F)nc(C(F)(F)F)c(C(=O)SC)c1CC(C)C [Dithiopyr]	1.977%
COc1c(Cl)ccc(Cl)c1C(=O)O [Dicamba]	0.946%
O=C(O)COc1ccc(Cl)cc1Cl [2,4-D]	9.203%

Same assay, conditions: final vs initial, 25° C. for two and one-half months

SMILES	% Diff
Cc1nn(-c2cc(NS(C)(=O)=O)c(Cl)cc2Cl)c(=O)n1C(F)F [Sulfentrazone]	0.26%
O=C(O)c1c(Cl)ccc2cc(Cl)cnc12 [Quinclorac]	0.99%
CSC(=O)c1c(C(F)F)nc(C(F)(F)F)c(C(=O)SC)c1CC(C)C [Dithiopyr]	−2.83%
COc1c(Cl)ccc(Cl)c1C(=O)O [Dicamba]	−1.37%
O=C(O)COc1ccc(Cl)cc1Cl [2,4-D]	−0.53%
